One compound from patent US8735609B2, “Bryostatin analogues, synthetic methods and uses” (The Board of Trustees of the Leland Stanford Junior …, priority 2007, dated 2014) can be followed below.

For assay [1], the system named is SF-539. The assay is described as follows: NCI human cancer cell line growth inhibition: SF-539 (CNS). Format: cell-based. To be noted: Homo sapiens.
Assay [2] has as its system MDA-MB-435. As to the kind of experiment: NCI human cancer cell line growth inhibition: MDA-MB-435 (Breast). The assay is classed as cell-based. To be noted: Homo sapiens.
Assay [3] deals with OVCAR-8. The assay is described as follows: NCI human cancer cell line growth inhibition: OVCAR-8 (Ovarian). Format: cell-based. To be noted: Homo sapiens.
Assay [4] has as its system A549/ATCC. As to the kind of experiment: NCI human cancer cell line growth inhibition: A549/ATCC (NSC Lung). The assay is classed as cell-based. The following applies: Homo sapiens.
Assay [5] deals with SNB-19. The assay is described as follows: NCI human cancer cell line growth inhibition: SNB-19 (CNS). Format: cell-based. To be noted: Homo sapiens.
For assay [6], the system named is HCC-2998. As to the kind of experiment: NCI human cancer cell line growth inhibition: HCC-2998 (Colon). To be noted: Homo sapiens. The assay is classed as cell-based.
The test system of assay [7] is UACC-62. The assay is described as follows: NCI human cancer cell line growth inhibition: UACC-62 (Melanoma). Format: cell-based. The following applies: Homo sapiens.
For assay [8], the system named is SR. As to the kind of experiment: NCI human cancer cell line growth inhibition: SR (Leukemia). Format: cell-based. To be noted: Homo sapiens.
Assay [9] concerns HOP-62. The assay is described as follows: NCI human cancer cell line growth inhibition: HOP-62 (NSC Lung). The assay is classed as cell-based. To be noted: Homo sapiens.
The test system of assay [10] is SK-MEL-28. The assay is described as follows: NCI human cancer cell line growth inhibition: SK-MEL-28 (Melanoma). The assay is classed as cell-based. To be noted: Homo sapiens.
The subject of assay [11] is IGROVI. The assay is described as follows: NCI human cancer cell line growth inhibition: IGROVI (Ovarian). The assay is classed as cell-based. To be noted: Homo sapiens.
Assay [12] deals with OVCAR-3. As to the kind of experiment: NCI human cancer cell line growth inhibition: OVCAR-3 (Ovarian). The assay is classed as cell-based. To be noted: Homo sapiens.
The test system of assay [13] is RPMI-8226. The assay is described as follows: NCI human cancer cell line growth inhibition: RPMI-8226 (Leukemia). The assay is classed as cell-based. The following applies: Homo sapiens.
In assay [14] the test system is SF-268. As to the kind of experiment: NCI human cancer cell line growth inhibition: SF-268 (CNS). The assay is classed as cell-based. The following applies: Homo sapiens.
For assay [15], the system named is SNB-75. The assay is described as follows: NCI human cancer cell line growth inhibition: SNB-75 (CNS). The following applies: Homo sapiens. The assay is classed as cell-based.
The subject of assay [16] is NCI-H460. Format: cell-based, human. The following applies: Homo sapiens; NCI-H460, NSC Lung; read-out: Growth inhibition (GI50).
Assay [17] deals with U251. The assay is described as follows: NCI human cancer cell line growth inhibition: U251 (CNS). Format: cell-based. The following applies: Homo sapiens, U-251.
For assay [18], the system named is SF-295. The assay is described as follows: NCI human cancer cell line growth inhibition: SF-295 (CNS). The assay is classed as cell-based. The following applies: Homo sapiens.

Usually GI50 stands for the concentration that inhibits growth by half.

As to `CCCCCCCC(=O)O[C@H]1/C(=C/C(=O)OC)C[C@H]2C[C@H](CO)OC(=O)C[C@H](O)C[C@@H]3CCC[C@H](C[C@@H]4CCO[C@H](/C=C/C(C)(C)[C@]1(O)O2)O4)O3` [Formula IIa (702.1)], the 50% growth inhibitory concentration (GI50) in [1] is 1.7 µM; in assay [2], 0.0219 µM; in [3], 17 µM; in [4], 0.24 µM; in [5], 6.31 µM; in assay [6] it was 0.0288 µM. Moreover, the GI50 in [7] was 7.76 µM; in [8] it was 7.94 µM; in assay [9], 16.2 µM; in assay [10], 21.4 µM; in assay [11] it was 13.2 µM; in assay [12], 14.8 µM. In addition, the GI50 is 1.51 µM in assay [13]; 10.7 µM in assay [14]; 10.7 µM in assay [15]; under 0.01 µM in assay [16]; 3.98 µM in assay [17]; 0.891 µM in [18].
